Test results reported in PubChem BioAssay (NCI).
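96-well plates; 48 h exposure; 5 concentrations. Endpoints by linear interpolation between flanking doses. Not reached: highest tested concentration assigned. GI50 is the concentration that inhibits growth by half. At the TGI there is no net growth.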

Columns and labels:
Assay in all cases: NCI anticancer screen, dose series, 48 h
PC-3 prostate = test system: PC-3 prostate
ACHN renal = test system: ACHN renal
UO-31 renal = test system: UO-31 renal
MOLT-4 leukemia = test system: MOLT-4 leukemia
BT-549 breast = test system: BT-549 breast
K-562 leukemia = test system: K-562 leukemia
OVCAR-8 ovarian = test system: OVCAR-8 ovarian
SF-295 CNS = test system: SF-295 CNS
NCI-H522 lung = test system: NCI-H522 lung
SW-620 colon = test system: SW-620 colon
SK-OV-3 ovarian = test system: SK-OV-3 ovarian
HOP-92 NSCLC = test system: HOP-92 NSCLC
OVCAR-5 ovarian = test system: OVCAR-5 ovarian
SNB-19 CNS = test system: SNB-19 CNS
SF-539 CNS = test system: SF-539 CNS
UACC-257 melanoma = test system: UACC-257 melanoma
SR leukemia = test system: SR leukemia
CCRF-CEM leukemia = test system: CCRF-CEM leukemia
OVCAR-3 ovarian = test system: OVCAR-3 ovarian
HCT-116 colon = test system: HCT-116 colon
786-0 renal = test system: 786-0 renal
SF-268 CNS = test system: SF-268 CNS
U251 CNS = test system: U251 CNS
CAKI-1 renal = test system: CAKI-1 renal
EKVX NSCLC = test system: EKVX NSCLC
HCC-2998 colon = test system: HCC-2998 colon
HCT-15 colon = test system: HCT-15 colon
SN12C renal = test system: SN12C renal
SK-MEL-5 melanoma = test system: SK-MEL-5 melanoma
NCI/ADR-RES ovarian = test system: NCI/ADR-RES ovarian
HL-60(TB) leukemia = test system: HL-60(TB) leukemia
SK-MEL-2 melanoma = test system: SK-MEL-2 melanoma
MCF7 breast = test system: MCF7 breast
NCI-H460 lung = test system: NCI-H460 lung
MDA-MB-435 = test system: MDA-MB-435
UACC-62 melanoma = test system: UACC-62 melanoma
TK-10 renal = test system: TK-10 renal
A549 NSCLC = test system: A549 NSCLC
T-47D breast = test system: T-47D breast
NCI-H226 lung = test system: NCI-H226 lung
M14 melanoma = test system: M14 melanoma
COLO 205 colon = test system: COLO 205 colon
SNB-75 CNS = test system: SNB-75 CNS
LOX IMVI melanoma = test system: LOX IMVI melanoma
HT29 colon = test system: HT29 colon
OVCAR-4 ovarian = test system: OVCAR-4 ovarian
HOP-62 NSCLC = test system: HOP-62 NSCLC
RXF 393 renal = test system: RXF 393 renal
SK-MEL-28 melanoma = test system: SK-MEL-28 melanoma
IGROV1 ovarian = test system: IGROV1 ovarian
KM12 colon = test system: KM12 colon
MALME-3M melanoma = test system: MALME-3M melanoma
HS 578T breast = test system: HS 578T breast
NCI-H23 lung = test system: NCI-H23 lung
DU-145 prostate = test system: DU-145 prostate
MDA-MB-231 breast = test system: MDA-MB-231 breast

For `COc1cc2c(cc1OCCCCCn1c(-c3ccc(OCc4ccccc4)cc3)nc3cc(N4CCOCC4)ccc31)N=C[C@@H]1CCCN1C2=O`, the GI50 (PC-3 prostate) was 3.88 µM, the TGI (PC-3 prostate) was greater than 100 µM and the GI50 (ACHN renal) was 2.63 µM. It also gave a TGI (ACHN renal) of 8.31 µM, a GI50 (UO-31 renal) of 0.377 µM and a GI50 (MOLT-4 leukemia) of 2.93 µM. For the same molecule, the TGI (MOLT-4 leukemia) was greater than 26.6 µM, the GI50 (BT-549 breast) was 1.52 µM and the TGI (BT-549 breast) was 5.68 µM. The TGI (K-562 leukemia) was greater than 100 µM, the GI50 (OVCAR-8 ovarian) was 2.78 µM and the TGI (OVCAR-8 ovarian) was greater than 50.9 µM. It also gave a GI50 (SF-295 CNS) of 4.84 µM, a TGI (SF-295 CNS) greater than 100 µM and a GI50 (NCI-H522 lung) of 2.15 µM. For the same molecule, the TGI (NCI-H522 lung) was 8.35 µM, the GI50 (SW-620 colon) was 2.12 µM and the TGI (SW-620 colon) was 8.29 µM. For the same molecule, the GI50 (SK-OV-3 ovarian) was 4.16 µM, the TGI (SK-OV-3 ovarian) was greater than 100 µM and the GI50 (HOP-92 NSCLC) was 2.11 µM. The TGI (HOP-92 NSCLC) was 26.2 µM, the GI50 (OVCAR-5 ovarian) was 3.49 µM and the TGI (OVCAR-5 ovarian) was greater than 28.9 µM. The GI50 (SNB-19 CNS) was 3.71 µM, the TGI (SNB-19 CNS) was greater than 49.8 µM and the GI50 (SF-539 CNS) was 2.42 µM. It also gave a TGI (SF-539 CNS) of 5.41 µM, a GI50 (UACC-257 melanoma) of 3.04 µM and a TGI (UACC-257 melanoma) of 7.78 µM. It also gave a GI50 (SR leukemia) of 1.05 µM, a GI50 (CCRF-CEM leukemia) of 1.4 µM and a GI50 (OVCAR-3 ovarian) of 2.06 µM. It also gave a TGI (OVCAR-3 ovarian) of 5.36 µM, a GI50 (HCT-116 colon) of 2.39 µM and a TGI (HCT-116 colon) greater than 100 µM. It also gave a GI50 (786-0 renal) of 3.24 µM, a TGI (786-0 renal) greater than 69.3 µM and a GI50 (SF-268 CNS) of 2.91 µM. It also gave a TGI (SF-268 CNS) of 10.4 µM, a GI50 (U251 CNS) of 2.23 µM and a TGI (U251 CNS) greater than 100 µM. The GI50 (CAKI-1 renal) was 1.43 µM, the TGI (CAKI-1 renal) was 9 µM and the GI50 (EKVX NSCLC) was 4.74 µM. For the same molecule, the TGI (EKVX NSCLC) was 20.7 µM, the GI50 (HCC-2998 colon) was 2.09 µM and the TGI (HCC-2998 colon) was 4.14 µM. It also gave a GI50 (HCT-15 colon) of 2.81 µM, a TGI (HCT-15 colon) greater than 31.3 µM and a GI50 (SN12C renal) of 3.11 µM. For the same molecule, the TGI (SN12C renal) was 47 µM, the GI50 (SK-MEL-5 melanoma) was 1.66 µM and the TGI (SK-MEL-5 melanoma) was 3.13 µM. It also gave a GI50 (NCI/ADR-RES ovarian) of 3.3 µM, a TGI (NCI/ADR-RES ovarian) of 26.1 µM and a GI50 (HL-60(TB) leukemia) of 2.31 µM. For the same molecule, the TGI (HL-60(TB) leukemia) was greater than 19.9 µM, the GI50 (SK-MEL-2 melanoma) was 0.729 µM and the TGI (SK-MEL-2 melanoma) was 3.02 µM. For the same molecule, the GI50 (MCF7 breast) was 1.18 µM, the TGI (MCF7 breast) was 8.77 µM and the GI50 (NCI-H460 lung) was 2.17 µM. The TGI (NCI-H460 lung) was 5.93 µM, the GI50 (MDA-MB-435) was 1.87 µM and the TGI (MDA-MB-435) was 4.38 µM. The GI50 (UACC-62 melanoma) was 1.72 µM, the TGI (UACC-62 melanoma) was 3.67 µM and the GI50 (TK-10 renal) was 3.45 µM. For the same molecule, the TGI (TK-10 renal) was greater than 36.2 µM, the GI50 (A549 NSCLC) was 2.43 µM and the TGI (A549 NSCLC) was 7.95 µM. It also gave a GI50 (T-47D breast) of 2.17 µM, a TGI (T-47D breast) of 7.73 µM and a GI50 (NCI-H226 lung) of 1.88 µM. It also gave a TGI (NCI-H226 lung) of 4.56 µM, a GI50 (M14 melanoma) of 2 µM and a TGI (M14 melanoma) of 4.56 µM. For the same molecule, the GI50 (COLO 205 colon) was 2.15 µM, the TGI (COLO 205 colon) was 5.13 µM and the GI50 (SNB-75 CNS) was 1.99 µM. For the same molecule, the TGI (SNB-75 CNS) was 6.63 µM, the GI50 (LOX IMVI melanoma) was 2.02 µM and the TGI (LOX IMVI melanoma) was 7.85 µM. It also gave a GI50 (HT29 colon) of 3.26 µM, a TGI (HT29 colon) greater than 100 µM and a GI50 (OVCAR-4 ovarian) of 3.4 µM. For the same molecule, the TGI (OVCAR-4 ovarian) was 59.4 µM, the GI50 (HOP-62 NSCLC) was 3.58 µM and the TGI (HOP-62 NSCLC) was 40 µM. It also gave a TGI (RXF 393 renal) of 2.38 µM, a GI50 (SK-MEL-28 melanoma) of 2.18 µM and a TGI (SK-MEL-28 melanoma) of 4.61 µM. The GI50 (IGROV1 ovarian) was 1.17 µM, the TGI (IGROV1 ovarian) was 5.88 µM and the GI50 (KM12 colon) was 1.93 µM. The TGI (KM12 colon) was 4.73 µM, the GI50 (MALME-3M melanoma) was 2.08 µM and the TGI (MALME-3M melanoma) was 4.49 µM. The GI50 (HS 578T breast) was 2.84 µM, the TGI (HS 578T breast) was 12.8 µM and the GI50 (NCI-H23 lung) was 2.62 µM. It also gave a TGI (NCI-H23 lung) of 6.53 µM, a GI50 (DU-145 prostate) of 2.57 µM and a TGI (DU-145 prostate) of 11.3 µM. The GI50 (MDA-MB-231 breast) was 2.8 µM and the TGI (MDA-MB-231 breast) was greater than 47.2 µM.
